The values below come from US8242086B2, “Methods and compositions for treating disorders caused by a deficiency in a gene product of a CLN gene” (Duke University, priority 2008, dated 2012).

Entries after “also recorded” stand apart in the source; their conditions may differ.

For one series, the system named is mutant CLN3p. The experiment in a line: Protein-lipid overlay assay, mutant CLN3p (JNCL cell lysate). The conditions noted are these: lysate of JNCL cells, anti-CLN3 antibody. The series is classed as binding, human. On the procedure:
(§1) Protein-lipid overlay assay. Membrane arrays (SPHINGOSTRIPS (Echelon Research Laboratories, Salt Lake City, Utah), or lipids were spotted on nitrocellulose membranes and dried for at least one hour. Membranes were blocked with 3% (wt/vol) Fatty Acid Free or FFA-BSA (Sigma-Aldrich, St. Louis, Mo.) in Tris-Buffered Saline Tween-20 (TBST) [150 mM NaCl/10 mM Tris.HCl (pH 8.0), and 0.1% (vol/vol) Tween-20] for 1 h at RT. Blocked membranes were incubated for 8 h at 4° C. with 2 mg/ml of total cell lysate.
(§2) Fibroblasts overexpressing CLN3p (AC1 cells) and JNCL fibroblasts were used for the GalCer-CLN3 binding assay. The membranes were then washed five times for 5 min each with TBST. After washing, membranes were incubated with anti-CLN3, CLN1, CLN2, CLN6 or CLN8-antibodies overnight at 1:1000 dilution, followed by additional washing and incubation with horseradish peroxidase-conjugated anti-rabbit IgG goat antibody for 1 h at RT. After a final washing, enhanced chemiluminescence was used to detect binding of NCL proteins to sphingolipids. Intensity values were computed with an ImageJ software program.
Binding of CLN3 to GalCer and sulfatide. Membranes impregnated with sphingolipids were overlaid with protein cell lysates from CLN3-overexpressing and JNCL cells. Anti-CLN3 antibody was used to evaluate binding. […]

The conditions of series [1]: investigated as a cancer therapy; cited from earlier work.
Series [2] deals with CLN3-deficient human NT2 neuronal precursor cells. The experiment in a line: Lipid raft GalCer in CLN3-deficient NT2 cells after GalCer supplementation. The series is classed as cell-based. The conditions noted are these: exogenous GalCer supplementation.
A further series addresses T1, CLN6 protein (Homo sapiens, UniProt Q9NWW5).
T1 construct: endogenous in cells
T1 sequence (Q9NWW5 1-311): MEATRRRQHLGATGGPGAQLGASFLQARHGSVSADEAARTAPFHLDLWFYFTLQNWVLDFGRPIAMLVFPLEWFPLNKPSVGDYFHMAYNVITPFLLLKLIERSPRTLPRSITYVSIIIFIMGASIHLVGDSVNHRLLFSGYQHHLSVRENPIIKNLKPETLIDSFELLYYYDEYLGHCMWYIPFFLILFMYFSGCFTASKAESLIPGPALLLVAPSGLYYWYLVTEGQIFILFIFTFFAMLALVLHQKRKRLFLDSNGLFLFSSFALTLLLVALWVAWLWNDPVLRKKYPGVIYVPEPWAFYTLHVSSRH
The experiment in a line: Protein-lipid overlay assay, CLN6 protein. It counts as binding. The conditions noted are these: lysates from normal cells, custom made sphingostrips. How it is done:
as §1, §2
CLN1, CLN2, CLN6, CLN8 and CLN9 proteins also bind to lipids. The protein-lipid overlay assay, using custom made sphingostrips, lysates from normal cells and anti-CLN1, anti-CLN2-, anti-CLN6, and anti-CLN8-antibodies, established that CLN6 and CLN8 proteins bind to GalCer, CLN1, CLN2 and CLN6p bind lysophosphatidic acid (LPA) and sulfatide, and CLN8p binds ceramide (FIG. 5).

Series [3] can be described thus: Intraperitoneal GalCer injection of normal mice, GalCer mass in kidney subcellular fractions (TLC). It counts as in vivo, mouse. The conditions noted are these: intraperitoneal injection (α-GalCer), two days prior to sacrifice. The source says:
Mouse experiments. Six homozygous Cln3^Δex7/8 adult 60 day old mice and six age and sex-matched control mice were deeply anesthetized by xylazine/ketamine and sacrificed by cardiac perfusion of ice-cold phosphate-buffered saline (PBS, pH 7.4), followed by periodate-lysine-phosphate (PLP) fixative (2% paraformaldehyde, 0.01M sodium periodate and 0.1M lysine phosphate buffer, pH 7.4). Mouse brains were snap-frozen in liquid nitrogen. Three of the frozen brains from each group were used for subcellular fractionation and thin layer chromatography, and frozen sections were obtained for fluorescence immunocytochemistry from the rest. At the age of 60 days and two days prior to sacrifice, three of six control mice were injected with α-GalCer at a dose of […] or vehicle intraperitoneally. They were deeply anesthetized by xylazine/ketamine and sacrificed by cardiac perfusion of ice-cold phosphate-buffered saline (PBS, pH 7.4), followed by periodate-lysine-phosphate (PLP) fixative (2% paraformaldehyde, 0.01M sodium periodate and 0.1M lysine phosphate buffer, pH 7.4). […]
Thin Layer Chromatography for Quantification of Galactosylceramide. […] Lipid quantification was accomplished with ImageQuant™ program and normalized with respect to phosphate content.

Consider galactosylceramide [GalCer], for which the “binding of mutant CLN3 to membrane spots impregnated with the lipid” value in the series with mutant CLN3p is “failed to do so”. Moreover, in series [1], the safety in humans entry is on record as “documented to be safe in humans”. For the same substance, the “GalCer in lipid rafts of CLN3-deficient NT2 cells” value in series [2] was “normalizes GalCer in lipid rafts”. The “binding of CLN6 protein to lipid” value on CLN6 protein is on record as “bind”. Also, in series [3], the “kidney Golgi GalCer” value is on record as “concomitant reduction in Golgi GalCer; also recorded: concomitant drop in Golgi GalCer” and the “kidney lipid raft (plasma membrane) GalCer” value was “increase GalCer at the plasma membrane; also recorded: increases kidney lipid raft GalCer”.
